Assay results published in the supplement of paper PMC10627819.

How the values were obtained:
B. subtilis 168 = assay: Bliss interaction score (quartile over a dose matrix) (fitness difference); higher = more antagonism (negative = synergy)
Method in brief: (§1)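 OD595 was read at entry into stationary phase and expressed relative to the robust mean of the no-drug wells on the same plate, capped at 1. The resulting ratio is the fitness value. The Bliss score, observed fitness minus product-based expected fitness with single-drug fitness inferred from combinations, is summarised by quartiles over technical, biological and donor/recipient replicates.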

S. aureus Newman [1] = assay: as above
Method in brief: as §1

S. pneumoniae D39V [2] = assay: as above
Method in brief: as §1

S. aureus DSM 20231 [3] = assay: as above
Method in brief: as §1

S. aureus Newman [4] = assay: fitness (endpoint OD595 vs no drug) (fraction); higher = more growth
Method in brief: (§2)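 Bacterial growth was followed in 384-well plates seeded at OD595 0.01, with 30 µl per well, or 55 µl for S. pneumoniae, in TSB, LB Lennox or CY at 37 °C. OD595 was read every 30 min for 14 h, and each reading had the first reading subtracted as background. Fitness is the background-corrected optical density at entry into stationary phase divided by the robust mean of the no-drug control wells. This ratio is capped at 1.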

S. pneumoniae D39V [5] = assay: as above
Method in brief: as §2

S. aureus DSM 20231 [6] = assay: as above
Method in brief: as §2
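Wherever Bliss interaction score (quartile over a dose matrix) is given: first quartile when negative (synergy) and third quartile when positive (antagonism).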

CC1(C)S[C@@H]2[C@H](NC(=O)[C@H](N)c3ccc(O)cc3)C(=O)N2[C@H]1C(=O)O [Amoxicillin] + CC1=C\[C@@H](O)CC(=O)Cc2nc(co2)C(=O)N2CCC=C2C(=O)O[C@H](C(C)C)[C@H](C)/C=C/C(=O)NC\C=C\1 [Virginiamycin M1]
Conditions	Bliss interaction score
B. subtilis 168	-0.0567
S. aureus DSM 20231 [3]	-0.0553
S. aureus Newman [1]	0.0682
S. pneumoniae D39V [2]	-0.0459

Conditions	fitness
S. aureus DSM 20231 [6], first compound 0.0625 µg/mL, partner 0.0625 µg/mL	0.48
S. aureus DSM 20231 [6], first compound 0.0625 µg/mL, partner 0.125 µg/mL	0.488
S. aureus DSM 20231 [6], first compound 0.0625 µg/mL, partner 0.25 µg/mL	0.504
S. aureus DSM 20231 [6], first compound 0.125 µg/mL, partner 0.0625 µg/mL	0.329
S. aureus DSM 20231 [6], first compound 0.25 µg/mL, partner 0.125 µg/mL	0.0421
S. aureus DSM 20231 [6], first compound 0.25 µg/mL, partner 0.25 µg/mL	0.0398
S. aureus Newman [4], first compound 0.0625 µg/mL, partner 0.0625 µg/mL	0.935
S. aureus Newman [4], first compound 0.0625 µg/mL, partner 0.125 µg/mL	0.893
S. aureus Newman [4], first compound 0.0625 µg/mL, partner 0.25 µg/mL	0.906
S. aureus Newman [4], first compound 0.125 µg/mL, partner 0.0625 µg/mL	0.883
S. aureus Newman [4], first compound 0.125 µg/mL, partner 0.125 µg/mL	0.948
S. aureus Newman [4], first compound 0.125 µg/mL, partner 0.25 µg/mL	0.945
S. aureus Newman [4], first compound 0.25 µg/mL, partner 0.0625 µg/mL	0.867
S. aureus Newman [4], first compound 0.25 µg/mL, partner 0.125 µg/mL	0.921
S. aureus Newman [4], first compound 0.25 µg/mL, partner 0.25 µg/mL	0.886
S. pneumoniae D39V [5], first compound 0.0008 µg/mL, partner 0.5 µg/mL	0.988
S. pneumoniae D39V [5], first compound 0.0008 µg/mL, partner 1 µg/mL	≥ 1
S. pneumoniae D39V [5], first compound 0.0008 µg/mL, partner 2 µg/mL	0.937
S. pneumoniae D39V [5], first compound 0.0015 µg/mL, partner 0.5 µg/mL	0.978
S. pneumoniae D39V [5], first compound 0.0015 µg/mL, partner 1 µg/mL	0.965
S. pneumoniae D39V [5], first compound 0.0015 µg/mL, partner 2 µg/mL	0.95
S. pneumoniae D39V [5], first compound 0.003 µg/mL, partner 0.5 µg/mL	0.926
S. pneumoniae D39V [5], first compound 0.003 µg/mL, partner 1 µg/mL	0.956
S. pneumoniae D39V [5], first compound 0.003 µg/mL, partner 2 µg/mL	0.914

one replicate
Conditions	fitness
S. aureus DSM 20231 [6], first compound 0.0625 µg/mL, partner 0.5 µg/mL	0.541
S. aureus DSM 20231 [6], first compound 0.0625 µg/mL, partner 1 µg/mL	0.699
S. aureus DSM 20231 [6], first compound 0.125 µg/mL, partner 0.5 µg/mL	0.444
S. aureus DSM 20231 [6], first compound 0.125 µg/mL, partner 1 µg/mL	0.497
S. aureus DSM 20231 [6], first compound 0.25 µg/mL, partner 0.5 µg/mL	0.0437
S. aureus DSM 20231 [6], first compound 0.25 µg/mL, partner 1 µg/mL	0.108
S. aureus DSM 20231 [6], first compound 0.5 µg/mL, partner 0.0625 µg/mL	0.0149
S. aureus DSM 20231 [6], first compound 0.5 µg/mL, partner 0.125 µg/mL	0.0318
S. aureus DSM 20231 [6], first compound 0.5 µg/mL, partner 0.25 µg/mL	0.0127
S. aureus Newman [4], first compound 0.125 µg/mL, partner 0.5 µg/mL	0.81
S. aureus Newman [4], first compound 0.125 µg/mL, partner 1 µg/mL	≥ 1
S. aureus Newman [4], first compound 0.125 µg/mL, partner 2 µg/mL	0.845
S. aureus Newman [4], first compound 0.25 µg/mL, partner 0.5 µg/mL	0.813
S. aureus Newman [4], first compound 0.25 µg/mL, partner 1 µg/mL	0.865
S. aureus Newman [4], first compound 0.25 µg/mL, partner 2 µg/mL	0.754
S. aureus Newman [4], first compound 0.5 µg/mL, partner 0.5 µg/mL	0.74
S. aureus Newman [4], first compound 0.5 µg/mL, partner 1 µg/mL	0.828
S. aureus Newman [4], first compound 0.5 µg/mL, partner 2 µg/mL	0.732
S. pneumoniae D39V [5], first compound 0.0008 µg/mL, partner 0.15 µg/mL	0.996
S. pneumoniae D39V [5], first compound 0.0008 µg/mL, partner 0.3 µg/mL	0.892
S. pneumoniae D39V [5], first compound 0.0015 µg/mL, partner 0.15 µg/mL	0.948
S. pneumoniae D39V [5], first compound 0.0015 µg/mL, partner 0.3 µg/mL	0.9
S. pneumoniae D39V [5], first compound 0.003 µg/mL, partner 0.15 µg/mL	0.951
S. pneumoniae D39V [5], first compound 0.003 µg/mL, partner 0.3 µg/mL	0.906
S. pneumoniae D39V [5], first compound 0.006 µg/mL, partner 0.5 µg/mL	0.447
S. pneumoniae D39V [5], first compound 0.006 µg/mL, partner 1 µg/mL	0.474
S. pneumoniae D39V [5], first compound 0.006 µg/mL, partner 2 µg/mL	0.46

CCCCCCCCCC(=O)N[C@@H](Cc1c[nH]c2ccccc12)C(=O)N[C@H](CC(N)=O)C(=O)N[C@@H](CC(=O)O)C(=O)N[C@@H]1C(=O)NCC(=O)N[C@@H](CCCN)C(=O)N[C@@H](CC(=O)O)C(=O)N[C@H](C)C(=O)N[C@@H](CC(=O)O)C(=O)NCC(=O)N[C@H](CO)C(=O)N[C@@H]([C@H](C)CC(=O)O)C(=O)N[C@@H](CC(=O)c2ccccc2N)C(=O)O[C@@H]1C [Daptomycin] + CCCCCCCCCC(=O)N[C@@H]1[C@H]([C@@H]([C@H](O[C@H]1OC2=C3C=C4C=C2OC5=C(C=C(C=C5)[C@H]([C@H]6C(=O)N[C@@H](C7=C(C(=CC(=C7)O)OC8[C@H]([C@H]([C@@H]([C@H](O8)CO)O)O)O)C9=C(C=CC(=C9)[C@H](C(=O)N6)NC(=O)[C@@H]4NC(=O)[C@@H]1C2=CC(=CC(=C2)OC2=C(C=CC(=C2)[C@H](C(=O)N[C@H](CC2=CC(=C(O3)C=C2)Cl)C(=O)N1)N)O)O)O)C(=O)O)O[C@H]1[C@@H]([C@H]([C@@H]([C@H](O1)CO)O)O)NC(=O)C)Cl)CO)O)O [Teicoplanin]
main component drawn
Conditions	Bliss interaction score
B. subtilis 168	0.0936
S. aureus DSM 20231 [3]	0.0282
S. aureus Newman [1]	0.0337
S. pneumoniae D39V [2]	0.0818

fitness, main component drawn
Conditions	first compound 0.125 µg/mL	first compound 0.25 µg/mL	first compound 0.5 µg/mL	first compound 1 µg/mL	first compound 2 µg/mL
S. aureus DSM 20231 [6], partner 0.1562 µg/mL	0.976	0.977	≥ 1	0.949	≥ 1
S. aureus DSM 20231 [6], partner 0.3125 µg/mL	≥ 1	≥ 1	≥ 1	≥ 1	0.991
S. aureus DSM 20231 [6], partner 0.625 µg/mL	≥ 1	≥ 1	≥ 1	≥ 1	≥ 1
S. aureus Newman [4], partner 0.1562 µg/mL	0.998	0.992	≥ 1	–	–
S. aureus Newman [4], partner 0.3125 µg/mL	≥ 1	≥ 1	≥ 1	–	–
S. aureus Newman [4], partner 0.625 µg/mL	≥ 1	≥ 1	≥ 1	–	–

fitness, S. aureus Newman [4], one replicate, main component drawn
Conditions	first compound 0.5 µg/mL	first compound 1 µg/mL	first compound 2 µg/mL
partner 0.62 µg/mL	0.791	0.785	0.924
partner 1.24 µg/mL	0.746	0.753	0.765
partner 2.48 µg/mL	0.461	0.471	0.501

CC1(C)S[C@@H]2[C@H](NC(=O)[C@H](N)c3ccc(O)cc3)C(=O)N2[C@H]1C(=O)O [Amoxicillin] + CCCCCCCCCC(=O)N[C@@H]1[C@H]([C@@H]([C@H](O[C@H]1OC2=C3C=C4C=C2OC5=C(C=C(C=C5)[C@H]([C@H]6C(=O)N[C@@H](C7=C(C(=CC(=C7)O)OC8[C@H]([C@H]([C@@H]([C@H](O8)CO)O)O)O)C9=C(C=CC(=C9)[C@H](C(=O)N6)NC(=O)[C@@H]4NC(=O)[C@@H]1C2=CC(=CC(=C2)OC2=C(C=CC(=C2)[C@H](C(=O)N[C@H](CC2=CC(=C(O3)C=C2)Cl)C(=O)N1)N)O)O)O)C(=O)O)O[C@H]1[C@@H]([C@H]([C@@H]([C@H](O1)CO)O)O)NC(=O)C)Cl)CO)O)O [Teicoplanin]
main component drawn
Conditions	Bliss interaction score
B. subtilis 168	-0.1
S. aureus DSM 20231 [3]	0.0453
S. aureus Newman [1]	0.0682
S. pneumoniae D39V [2]	-0.0856

fitness, main component drawn
Conditions	first compound 0.0625 µg/mL	first compound 0.125 µg/mL	first compound 0.25 µg/mL
S. aureus DSM 20231 [6], partner 0.1562 µg/mL	0.575	0.408	0.199
S. aureus DSM 20231 [6], partner 0.3125 µg/mL	0.658	–	–
S. aureus DSM 20231 [6], partner 0.625 µg/mL	0.619	–	0.0287
S. aureus Newman [4], partner 0.1562 µg/mL	0.947	0.94	0.848
S. aureus Newman [4], partner 0.3125 µg/mL	0.898	0.913	0.815
S. aureus Newman [4], partner 0.625 µg/mL	0.823	0.853	0.73

fitness, one replicate, main component drawn
Conditions	partner 0.1562 µg/mL	partner 0.3125 µg/mL	partner 0.62 µg/mL	partner 0.625 µg/mL	partner 1.24 µg/mL	partner 2.48 µg/mL
S. aureus DSM 20231 [6], first compound 0.5 µg/mL	0.0188	0.0061	–	0.0019	–	–
S. aureus Newman [4], first compound 0.125 µg/mL	–	–	0.747	–	0.689	0.396
S. aureus Newman [4], first compound 0.25 µg/mL	–	–	0.725	–	0.785	0.491
S. aureus Newman [4], first compound 0.5 µg/mL	–	–	0.724	–	0.684	0.462
